Experimental data reported in patent US7417156B2, “Orally active, antimalarial, anticancer, artemisinin-derived trioxane dimers” (Johns Hopkins University, priority 2002, dated 2008).

Tests used:
Test in all cases: NCI 60 cell line panel screen (SRB)
Assay type in all cases: cell-based, human
RXF 393 = test system: RXF 393
BT-549 = test system: BT-549
EKVX = test system: EKVX
MDA-MB231/ATCC = test system: MDA-MB231/ATCC
SNB-19 = test system: SNB-19
SF-268 = test system: SF-268
NCI-H23 = test system: NCI-H23
SK-MEL-2 = test system: SK-MEL-2
SK-OV-3 = test system: SK-OV-3
M14 = test system: M14
IGROVI = test system: IGROVI
MALME-3M = test system: MALME-3M
CAKI-1 = test system: CAKI-1
SF-539 = test system: SF-539
NCI/ADR-RES = test system: NCI/ADR-RES
HCT-116 = test system: HCT-116
HOP-62 = test system: HOP-62
NCI-H522 = test system: NCI-H522

With `CC1CCC2C(C)C(CC(COC(=O)CCC(=O)O)CC3OC4OC5(C)CCC6C(C)CCC(C3C)C46OO5)OC3OC4(C)CCC1C32OO4` (stereo not drawn) [Compound 8a, bis-trioxane primary succinate monoester] the Log10LC50 (RXF 393; RXF 393 (Renal Cancer), LC50: PG=−50) was >−4.30 log10M, the Log10TGI50 (RXF 393; RXF 393 (Renal Cancer), TGI: PG=0) was −6.77 log10M and the Log10GI50 (RXF 393; Renal Cancer, RXF 393) was <−8.30. The Log10LC50 (BT-549; BT-549 (Breast Cancer), LC50: PG=−50) was >−4.30 log10M, the Log10TGI50 (BT-549; BT-549 (Breast Cancer), TGI: PG=0) was −7.39 log10M and the Log10GI50 (BT-549; Breast Cancer, BT-549) was −7.91. For the same compound, the Log10LC50 (EKVX; EKVX (Non-Small Cell Lung Cancer), LC50: PG=−50) was >−4.30 log10M, the Log10TGI50 (EKVX; EKVX (Non-Small Cell Lung Cancer), TGI: PG=0) was −5.47 log10M and the Log10GI50 (EKVX; Non-Small Cell Lung Cancer, EKVX) was −6.90. For the same compound, the Log10GI50 (MDA-MB231/ATCC; Breast Cancer, MDA-MB231/ATCC) was −7.19, the Log10LC50 (MDA-MB231/ATCC; MDA-MB231/ATCC (Breast Cancer), LC50: PG=−50) was >−4.30 log10M and the Log10TGI50 (MDA-MB231/ATCC; MDA-MB231/ATCC (Breast Cancer), TGI: PG=0) was −6.35 log10M. For the same compound, the Log10GI50 (SNB-19; CNS Cancer, SNB-19) was −5.62, the Log10LC50 (SNB-19; SNB-19 (CNS Cancer), LC50: PG=−50) was >−4.30 log10M and the Log10TGI50 (SNB-19; SNB-19 (CNS Cancer), TGI: PG=0) was >−4.30 log10M. For the same compound, the Log10GI50 (SF-268; CNS Cancer, SF-268) was −7.11, the Log10LC50 (SF-268; SF-268 (CNS Cancer), LC50: PG=−50) was >−4.30 log10M and the Log10TGI50 (SF-268; SF-268 (CNS Cancer), TGI: PG=0) was >−4.30 log10M. For the same compound, the Log10LC50 (NCI-H23; NCI-H23 (Non-Small Cell Lung Cancer), LC50: PG=−50) was >−4.30 log10M, the Log10TGI50 (NCI-H23; NCI-H23 (Non-Small Cell Lung Cancer), TGI: PG=0) was >−4.30 log10M and the Log10GI50 (NCI-H23; Non-Small Cell Lung Cancer, NCI-H23) was <−8.30. For the same compound, the Log10GI50 (SK-MEL-2; Melanoma, SK-MEL-2) was −5.12, the Log10LC50 (SK-MEL-2; SK-MEL2 (Melanoma), LC50: PG=−50) was >−4.30 log10M and the Log10TGI50 (SK-MEL-2; SK-MEL-2 (Melanoma), TGI: PG=0) was >−4.30 log10M. For the same compound, the Log10GI50 (SK-OV-3; Ovarian Cancer, SK-OV-3) was −4.89, the Log10LC50 (SK-OV-3; SK-OV-3 (Ovarian Cancer), LC50: PG=−50) was >−4.30 log10M and the Log10TGI50 (SK-OV-3; SK-OV-3 (Ovarian Cancer), TGI: PG=0) was >−4.30 log10M. For the same compound, the Log10LC50 (M14; M14 (Melanoma), LC50: PG=−50) was >−4.30 log10M, the Log10TGI50 (M14; M-14 (Melanoma), TGI: PG=0) was >−4.30 log10M and the Log10GI50 (M14; Melanoma, M14) was −6.94. The Log10LC50 (IGROVI; IGROVI (Ovarian Cancer), LC50: PG=−50) was >−4.30 log10M, the Log10TGI50 (IGROVI; IGROVI (Ovarian Cancer), TGI: PG=0) was >−4.30 log10M and the Log10GI50 (IGROVI; Ovarian Cancer, IGROVI) was −5.07. The Log10LC50 (MALME-3M; MALME-3M (Melanoma), LC50: PG=−50) was >−4.30 log10M, the Log10TGI50 (MALME-3M; MALME-3M (Melanoma), TGI: PG=0) was −6.82 log10M and the Log10GI50 (MALME-3M; Melanoma, MALME-3M) was <−8.30. For the same compound, the Log10LC50 (CAKI-1; CAKI-1 (Renal Cancer), LC50: PG=−50) was >−4.30 log10M, the Log10TGI50 (CAKI-1; CAKI-1 (Renal Cancer), TGI: PG=0) was >−5.99 log10M and the Log10GI50 (CAKI-1; Renal Cancer, CAKI-1) was −6.84. For the same compound, the Log10GI50 (SF-539; CNS Cancer, SF-539) was −5.27, the Log10LC50 (SF-539; SF-539 (CNS Cancer), LC50: PG=−50) was >−4.30 log10M and the Log10TGI50 (SF-539; SF-539 (CNS Cancer), TGI: PG=0) was >−4.30 log10M. For the same compound, the Log10GI50 (NCI/ADR-RES; Breast Cancer, NCI/ADR-RES) was −5.64, the Log10LC50 (NCI/ADR-RES; NCI/ADR-RES (Breast Cancer), LC50: PG=−50) was >−4.30 log10M and the Log10TGI50 (NCI/ADR-RES; NCI/ADR-RES (Breast Cancer), TGI: PG=0) was >−4.30 log10M. For the same compound, the Log10GI50 (HCT-116; Colon Cancer, HCT-116) was <−8.30, the Log10LC50 (HCT-116; HCT-116 (Colon Cancer), LC50: PG=−50) was >−4.30 log10M and the Log10TGI50 (HCT-116; HCT-116 (Colon Cancer), TGI: PG=0) was >−4.30 log10M. For the same compound, the Log10LC50 (HOP-62; HOP-62 (Non-Small Cell Lung Cancer), LC50: PG=−50) was >−4.30 log10M, the Log10TGI50 (HOP-62; HOP-62 (Non-Small Cell Lung Cancer), TGI: PG=0) was >−4.30 log10M and the Log10GI50 (HOP-62; Non-Small Cell Lung Cancer, HOP-62) was −6.34. The Log10TGI50 (NCI-H522; NCI-H522 (Non-Small Cell Lung Cancer), TGI: PG=0) was >−4.30 log10M, the Log10LC50 (NCI-H522; NCI-H-522 (Non-Small Cell Lung Cancer), LC50: PG=−50) was >−4.30 log10M and the Log10GI50 (NCI-H522; Non-Small Cell Lung Cancer, NCI-H522) was −6.16.
